According to US10406135B2, “Compositions containing isosorbide monoester and alcohols that contain at least one aromatic group” (Clariant International Ltd., priority 2011, dated 2019):
Read-outs that look alike come from different tables or passages of the source.

Legend:
[1] = test system: bacteria, fungi and yeasts; settings: general statement, no test described, cited from earlier work
[2] = test system: bacteria, fungi and yeasts; test: Antimicrobial efficacy, summary statements over the organisms tested; assay type: cell-based
Experimental: Below, the antimicrobial efficacy of a composition according to the invention consisting of 50% by weight of isosorbide caprylate 1 and 50% by weight of phenoxyethanol against bacteria, fungi and yeasts is examined (hereinbelow, the composition is referred to as “composition A”). For the tests with bacteria, composition A was diluted with butyl polyglycol and then, at 50° C., added to liquid CASO agar (casein-peptone agar) buffered to pH 7 (+/−0.2) in various concentrations (hereinbelow referred to as compositions B1, B2, etc.). For the tests with fungi and yeasts, composition A was diluted with butyl polyglycol and then added to liquid Sabouraud 4% dextrose agar buffered to pH 5.6 (+/−0.2) in various concentrations (hereinbelow referred to as compositions PH1, PH2, etc.). […]
(§1) The minimum inhibitory concentrations for the pure substances isosorbide caprylate 1 and phenoxyethanol were determined analogously. […]
(§2) Analogously to the determination of the antimicrobial activity according to the above example B), the antimicrobial activity of a mixture comprising, firstly, 89.6% by weight of isosorbide dicaprylate and 9.4% by weight of isosorbide monocaprylate (remainder: 1% by weight) (hereinbelow referred to as “isosorbide dicaprylate”) and, secondly, pure isosorbide was determined in further test series.

Candida albicans = test: Antimicrobial efficacy, minimum inhibitory concentration (MIC) in agar; assay type: cell-based; settings: Sabouraud 4% dextrose agar pH 5.6, read-out: MIC of isosorbide
Experimental: (§3) Below, the antimicrobial efficacy of a composition according to the invention consisting of 50% by weight of isosorbide caprylate 1 and 50% by weight of phenoxyethanol against bacteria, fungi and yeasts is examined (hereinbelow, the composition is referred to as “composition A”). For the tests with bacteria, composition A was diluted with butyl polyglycol and then, at 50° C., added to liquid CASO agar (casein-peptone agar) buffered to pH 7 (+/−0.2) in various concentrations (hereinbelow referred to as compositions B1, B2, etc.). For the tests with fungi and yeasts, composition A was diluted with butyl polyglycol and then added to liquid Sabouraud 4% dextrose agar buffered to pH 5.6 (+/−0.2) in various concentrations (hereinbelow referred to as compositions PH1, PH2, etc.). The compositions B1, B2, etc. and PH1, PH2 etc. were each poured into Petri dishes and each inoculated with identical amounts of bacteria, fungi and yeasts. The minimum inhibitory concentration (MIC) is the concentration at which inhibition of the growth of the bacteria, fungi and yeasts in the compositions B1, B2, etc. and PH1, PH2, etc. occurs.
as §1
(§4) The values determined for the minimum inhibitory concentrations “QA” and “QB”, stated in Table 1 below, have already been corrected for the dilution effect of the butyl polyglycol. […]
as §2

Citrobacter freundii = test: as above; assay type: cell-based; settings: CASO agar pH 7, read-out: MIC of isosorbide
Experimental: as §3, §1, §4, §2

Escherichia coli = test: as above; assay type: cell-based; settings: CASO agar pH 7, read-out: MIC of isosorbide
Experimental: as §3, §1, §4, §2

Proteus vulgaris = test: as above; assay type: cell-based; settings: CASO agar pH 7, read-out: MIC of isosorbide
Experimental: as §3, §1, §4, §2

Aspergillus terreus = test: as above; assay type: cell-based; settings: Sabouraud 4% dextrose agar pH 5.6, read-out: MIC of isosorbide
Experimental: as §3, §1, §4, §2

Penicillium minioluteum = test: as above; assay type: cell-based; settings: Talaromyces minioluteus, Sabouraud 4% dextrose agar pH 5.6, read-out: MIC of isosorbide
Experimental: as §3, §1, §4, §2

Aspergillus brasiliensis = test: as above; assay type: cell-based; settings: Sabouraud 4% dextrose agar pH 5.6, read-out: MIC of isosorbide
Experimental: as §3, §1, §4, §2

Pseudomonas aeruginosa = test: as above; assay type: cell-based; settings: CASO agar pH 7, read-out: MIC of isosorbide
Experimental: as §3, §1, §4, §2

Penicillium funicolosium = test: as above; assay type: cell-based; settings: Sabouraud 4% dextrose agar pH 5.6, read-out: MIC of isosorbide
Experimental: as §3, §1, §4, §2

Fusarium solani = test: as above; assay type: cell-based; settings: Sabouraud 4% dextrose agar pH 5.6, read-out: MIC of isosorbide
Experimental: as §3, §1, §4, §2

Enterobacter aerogenes = test: as above; assay type: cell-based; settings: Klebsiella aerogenes, CASO agar pH 7, read-out: MIC of isosorbide
Experimental: as §3, §1, §4, §2

Klebsiella pneumoniae = test: as above; assay type: cell-based; settings: CASO agar pH 7, read-out: MIC of isosorbide
Experimental: as §3, §1, §4, §2

Staphylococcus aureus = test: as above; assay type: cell-based; settings: CASO agar pH 7, read-out: MIC of isosorbide
Experimental: (§5) Below, the antimicrobial efficacy of a composition according to the invention consisting of 50% by weight of isosorbide caprylate 1 and 50% by weight of phenoxyethanol against bacteria, fungi and yeasts is examined (hereinbelow, the composition is referred to as “composition A”). For the tests with bacteria, composition A was diluted with butyl polyglycol and then, at 50° C., added to liquid CASO agar (casein-peptone agar) buffered to pH 7 (+/−0.2) in various concentrations (hereinbelow referred to as compositions B1, B2, etc.). […]
(§6) The minimum inhibitory concentrations for the pure substances isosorbide caprylate 1 and phenoxyethanol were determined analogously.
(§7) The values determined for the minimum inhibitory concentrations “MIC mixture”, stated in Table 1 below, are based on the concentrations of composition A.
as §4, §2

Pseudomonas oleovorans = test: as above; assay type: cell-based; settings: Ectopseudomonas oleovorans, CASO agar pH 7, read-out: MIC of isosorbide
Experimental: as §5, §6, §7, §4, §2

For CCCCCCCC(=O)O [caprylic acid], the “antimicrobial activity (in words)” value ([1]; at a pH of 6 or above) is listed as “no antimicrobial activity” and the “antimicrobial activity (in words)” value [1] is listed as “antimicrobially effective”.

With O[C@@H]1CO[C@H]2[C@@H]1OC[C@@H]2O [isosorbide] the “antimicrobial activity (in words)” value ([2]; summary of the MICs of Table 2) was “neither isosorbide nor isosorbide dicaprylate are antimicrobially active”, the MIC (Candida albicans) was 10000 µg/mL and the MIC (Citrobacter freundii) was 10000 µg/mL. For the same molecule, the MIC (Escherichia coli) was 10000 µg/mL, the MIC (Proteus vulgaris) was 10000 µg/mL and the MIC (Aspergillus terreus) was 10000 µg/mL. It also gave an MIC (Penicillium minioluteum) of 10000 µg/mL, an MIC (Aspergillus brasiliensis) of 10000 µg/mL and an MIC (Pseudomonas aeruginosa) of 10000 µg/mL. For the same molecule, the MIC (Penicillium funicolosium) was 10000 µg/mL, the MIC (Fusarium solani) was 10000 µg/mL and the MIC (Enterobacter aerogenes) was 10000 µg/mL. The MIC (Klebsiella pneumoniae) was 10000 µg/mL, the MIC (Staphylococcus aureus) was 10000 µg/mL and the MIC (Pseudomonas oleovorans) was 10000 µg/mL.

With isosorbide monocaprylate the “antimicrobial activity (in words)” value ([2]; concluded from Tables 1 and 2, not tested as pure compound) was “significant antimicrobial activity”.
